The values below come from US20210395242A1, “HETEROCYCLIC COMPOUNDS AS AHR MODULATORS” (JAGUAHR THERAPEUTICS PTE LTD, priority 2018, published 2021).

The target of one assay is T1, AhR (Homo sapiens, UniProt P35869).
T1 construct: endogenous in cells; host or cells: U937 cells
T1 sequence (P35869 11-848): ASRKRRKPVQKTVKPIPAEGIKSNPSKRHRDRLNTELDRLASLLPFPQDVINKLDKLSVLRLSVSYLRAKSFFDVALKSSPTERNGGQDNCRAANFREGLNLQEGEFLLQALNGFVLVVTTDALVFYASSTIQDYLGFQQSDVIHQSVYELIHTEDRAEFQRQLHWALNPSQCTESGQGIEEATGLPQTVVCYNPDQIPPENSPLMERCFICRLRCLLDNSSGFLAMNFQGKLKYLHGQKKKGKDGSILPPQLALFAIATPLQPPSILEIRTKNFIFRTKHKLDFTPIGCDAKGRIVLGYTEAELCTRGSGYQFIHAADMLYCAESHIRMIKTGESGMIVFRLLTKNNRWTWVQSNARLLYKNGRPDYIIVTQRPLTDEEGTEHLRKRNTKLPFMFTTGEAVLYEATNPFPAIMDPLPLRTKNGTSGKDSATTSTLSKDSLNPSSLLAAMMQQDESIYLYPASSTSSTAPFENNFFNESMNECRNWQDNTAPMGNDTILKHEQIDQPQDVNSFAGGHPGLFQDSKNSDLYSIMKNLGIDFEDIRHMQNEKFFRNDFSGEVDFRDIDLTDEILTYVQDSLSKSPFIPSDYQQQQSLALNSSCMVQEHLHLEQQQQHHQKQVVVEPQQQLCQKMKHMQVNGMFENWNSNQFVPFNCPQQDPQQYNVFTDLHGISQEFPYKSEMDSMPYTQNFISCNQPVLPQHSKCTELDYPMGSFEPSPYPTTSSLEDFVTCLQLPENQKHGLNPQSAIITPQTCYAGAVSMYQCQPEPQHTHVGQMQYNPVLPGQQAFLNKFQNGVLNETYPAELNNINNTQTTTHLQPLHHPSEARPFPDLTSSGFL
In words: AhR antagonism in U937 cells (Promega P450-Glo assay). The format is cell-based. The conditions noted are these: inhibition of 300 μM KYNA response, 24 hrs, CYP1A1 activity readout (Luciferin-CEE), arithmetic mean of pIC50. On the procedure:
(§1) The compounds of the examples were tested in selected biological assays two or more times. Data are reported as the arithmetic mean of the pIC50 (−log10IC50) values, where IC50 is defined as the concentration of compound producing a 50% inhibition of the agonist (KYNA) response.
In Vitro Assay 1: AhR Antagonism in U937 Cells (Promega P450-Glo™ Assay)
AhR antagonism was assessed in U937 cells (myeloid lineage cell line derived from a human histiocytic lymphoma). Ligand binds the AhR in the cytoplasm, and the AhR-ligand complex translocates to the nucleus and forms a heterodimer with AhR nuclear translocator (Arnt). This complex binds the xenobiotic response element (XRE) in the 5′ upstream region of the CYP1A1 promoter, enhancing CYP1A1 expression. CYP1A1 activity is subsequently determined by assessing the conversion of Luciferin-CEE to luciferin, which in turn reacts with luciferase to produce light. The amount of light produced is directly proportional to cytochrome P450 activity. U937 cells in Ultraculture serum free media (Lonza) were plated at 100,000 cells per well in a round bottom 96 well tissue culture plate. Seven concentrations of test compound (final [DMSO]1%) were added and incubated for 10 minutes before the addition of 300 μM KYNA. The plates were then placed in an incubator at 37° C., >85% humidity, 5% CO2 for 24 hrs. After aspiration of the supernatant the CYP1A1 substrate Luciferin-CEE ([Final] 83 μM) was added and incubated for 3 hrs before the reaction was stopped by adding luciferin detection reagent and luminescence was read after 20 minutes.

For a further assay, the target named is T2, CYP1A1 (Homo sapiens, UniProt P04798).
T2 construct: purchased Cypex
T2 sequence (P04798 1-512): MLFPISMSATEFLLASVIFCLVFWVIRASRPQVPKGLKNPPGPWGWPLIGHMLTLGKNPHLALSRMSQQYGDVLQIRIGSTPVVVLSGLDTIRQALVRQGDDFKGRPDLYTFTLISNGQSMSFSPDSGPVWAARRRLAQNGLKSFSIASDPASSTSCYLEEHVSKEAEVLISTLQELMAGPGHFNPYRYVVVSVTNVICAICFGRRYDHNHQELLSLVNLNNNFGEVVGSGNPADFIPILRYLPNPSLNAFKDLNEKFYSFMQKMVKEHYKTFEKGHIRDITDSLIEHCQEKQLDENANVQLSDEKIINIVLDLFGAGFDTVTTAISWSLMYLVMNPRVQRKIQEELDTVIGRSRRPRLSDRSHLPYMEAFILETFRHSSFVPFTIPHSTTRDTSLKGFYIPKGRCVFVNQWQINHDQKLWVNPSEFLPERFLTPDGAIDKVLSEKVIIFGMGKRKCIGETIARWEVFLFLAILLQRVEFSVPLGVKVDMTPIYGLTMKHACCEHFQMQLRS
In words: CYP1A1 inhibition assay (Promega P450-Glo, Cypex CYP1A1 bactosomes). The format is biochemical. The conditions noted are these: Luciferin-CEE 30 μM, 0.2 mM NADPH, 37° C. 10 minutes, arithmetic mean of pIC50. On the procedure: as §1
In vitro assay 2: CYP1A1 inhibition assay The direct CYP1A1 inhibitory activity of test compounds was also assessed using the Promega P450-Glo™ assay system. Seven concentrations of test compound were added to a ½ area white 96 well plate. Cypex CYP1A1 bactosomes ([final] 0.5 pmol) and CYP1A1 substrate Luciferin-CEE ([final] 30 μM) were prepared in 0.1M potassium phosphate buffer and incubated with test compounds at 37° C. for 5 minutes. 0.2 mM NADPH was then added to the plates and incubated at 37° C., for 10 minutes. The reaction was stopped by adding luciferin detection reagent and luminescence was read after 20 minutes.

With `Cn1nccc1C(=O)Nc1ccc(-c2nc3cccc(Cl)c3[nH]2)cc1` [Example 19, N-(4-(7-chloro-1H-benzo[d]imidazol-2-yl)phenyl)-1-methyl-1H-pyrazole-5-carboxamide], the IC50 (in general, the concentration that inhibits the measured activity by half) at AhR was 145 nM; on CYP1A1, 316 nM.
